Here are results for two compounds from patent US9725554B2, “Dendritic polyurea for solubilizing active substances of low solubility” (BASF SE, priority 2009, dated 2017).

One data set in a line: physchem. The conditions noted are these: pH 7, aqueous buffer, thermodynamic from solid. As for the experimental part:
Then 0.2 g of each active ingredient was weighed into the batch to give a supersaturated solution. […] The mixture was then stirred at room temperature for 72 hours, using a magnetic stirrer. After a rest time of one hour, unsolubilized active ingredient was removed by filtration. The resulting clear or opaque solution was then analyzed for its active ingredient content by means of UV spectroscopy or HPLC.

The procedure of data set [1]: Then 100 mg of each active ingredient was weighed into the batch to give a supersaturated solution. The mixture was then stirred at room temperature for 24 hours, using a magnetic stirrer. After a rest time of one hour, unsolubilized active ingredient was removed by centrifuging. The resulting clear or opaque solution was then analyzed for its active ingredient content by means of UV spectroscopy.
The solubility was determined as described in procedure 2.

In general, solubility refers to the concentration that dissolves in the medium under given conditions.

As to `Clc1ccccc1C(c1ccccc1)(c1ccccc1)n1ccnc1` [Clotrimazole], the solubility at 72 h in the data set “physchem” is less than 100 µg/mL. Take “polyethylene glycol monomethyl ether [PEG monomethyl ether]”: in data set [1], the “Solubility of Fipronil in the presence of polymer” value was 6 µg/mL.
